Read-outs that look alike come from different tables or passages of the source.
Columns and labels:
[1] = test system: E. coli NIHJ JC-2; assay: Sensitivity test (agar dilution); format: cell-based, Escherichia coli; conditions: Escherichia coli
Procedure, shortened: (§1)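 Each strain, cultured overnight at 37° C and adjusted to about 10^6 CFU/ml in BSG, was spotted (about 5 μl) on Mueller Hinton agar with twofold serial drug concentrations. Inhibition defines the MIC.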

[2] = test system: E. coli ML1410 RP4; assay: microbe, parasite or virus in culture; format: cell-based, Escherichia coli; conditions: Escherichia coli
Procedure, shortened: as §1

[3] = test system: P. vulgaris GN7919; assay: Sensitivity test (agar dilution); format: cell-based, Proteus vulgaris; conditions: Proteus vulgaris
Procedure, shortened: as §1

[4] = test system: P. vurgalis OX-19; assay: Sensitivity test (agar dilution); format: cell-based, Proteus vulgaris; conditions: Proteus vulgaris
Procedure, shortened: as §1

**Q.** Which results are given for C[C@H]1C=C(c2csc(SC3=C(C(=O)O)N4C(=O)[C@H]([C@@H](C)O)[C@H]4[C@H]3C)n2)CN1 [SM, (4R,5S,6S)-6-[(1R)-1-Hydroxyethyl]-4-methyl-3-({4-[(5S)-5-methyl-2,5-dihydro-1H-pyrrol-3-yl]-1,3-thiazol-2-yl}sulfanyl)-7-oxo-1-azabicyclo[3.2.0]hept-2-ene-2-carboxylic acid]?
**A.** MIC ([1]; NIHJJC2, Concomitant (DRPM:SM = 1:1), E. coli NIHJ JC-2, read-out: MIC concomitant): 0.016 µg/mL; MIC ([1]; NIHJJC2, Concomitant (IPM:SM = 1:1), read-out: MIC): 0.063 µg/mL; MIC ([1]; NIHJJC2, Concomitant (MEPM:SM = 1:1), read-out: MIC): ≤ 0.016 µg/mL; MIC ([1]; NIHJJC2, Concomitant (MEPM:SM = 1:2), read-out: MIC): ≤ 0.031 µg/mL; MIC ([1]; NIHJJC2, Concomitant (MEPM:SM = 1:4), read-out: MIC): ≤ 0.063 µg/mL; MIC ([1]; NIHJJC2, Concomitant (PAPM:SM = 1:1), E. coli NIHJ JC-2, read-out: MIC concomitant): 0.063 µg/mL; MIC ([1]; NIHJJC2, Concomitant (PIPC:SM = 1:1), E. coli NIHJ JC-2, read-out: MIC concomitant): 0.063 µg/mL; MIC ([1]; NIHJJC2, Concomitant drug (MEPM:SM = 2:1), read-out: MIC): ≤ 0.008 µg/mL; MIC ([1]; NIHJJC2, alone, read-out: MIC): 0.125 µg/mL; MIC ([1]; NIHJJC2, drug alone, E. coli NIHJ JC-2, read-out: MIC alone): 0.125 µg/mL; MIC ([2]; ML1410RP4, Concomitant (IPM:SM = 1:1)): 0.125 µg/mL; MIC ([2]; ML1410RP4, Concomitant (MEPM:SM = 1:1)): ≤ 0.016 µg/mL; MIC ([2]; ML1410RP4, Concomitant (MEPM:SM = 1:2)): ≤ 0.031 µg/mL; MIC ([2]; ML1410RP4, Concomitant (MEPM:SM = 1:4)): ≤ 0.063 µg/mL; MIC ([2]; ML1410RP4, Concomitant drug (MEPM:SM = 2:1)): ≤ 0.008 µg/mL; MIC ([2]; ML1410RP4, alone): 0.5 µg/mL; MIC ([2]; ML1410RP4, read-out: MIC alone, drug alone, E. coli ML1410 RP4): 0.5 µg/mL; MIC ([2]; ML1410RP4, read-out: MIC concomitant, Concomitant (AZT:SM = 1:1), E. coli ML1410 RP4): 0.063 µg/mL; MIC ([2]; ML1410RP4, read-out: MIC concomitant, Concomitant (BIPM:SM = 1:1), E. coli ML1410 RP4): 0.125 µg/mL; MIC ([2]; ML1410RP4, read-out: MIC concomitant, Concomitant (CAZ:SM = 1:1), E. coli ML1410 RP4): 0.125 µg/mL; MIC ([2]; ML1410RP4, read-out: MIC concomitant, Concomitant (CPFX:SM = 1:1), E. coli ML1410 RP4): 0.25 µg/mL; MIC ([2]; ML1410RP4, read-out: MIC concomitant, Concomitant (DRPM:SM = 1:1), E. coli ML1410 RP4): 0.031 µg/mL; MIC ([2]; ML1410RP4, read-out: MIC concomitant, Concomitant (PAPM:SM = 1:1), E. coli ML1410 RP4): 0.125 µg/mL; MIC ([2]; ML1410RP4, read-out: MIC concomitant, Concomitant (PIPC:SM = 1:1), E. coli ML1410 RP4): 0.5 µg/mL; MIC ([3]; GN7919, Concomitant (AZT:SM = 1:1), P. vulgaris GN7919, read-out: MIC concomitant): 0.25 µg/mL; MIC ([3]; GN7919, Concomitant (BIPM:SM = 1:1), P. vulgaris GN7919, read-out: MIC concomitant): 0.25 µg/mL; MIC ([3]; GN7919, Concomitant (CAZ:SM = 1:1), P. vulgaris GN7919, read-out: MIC concomitant): 0.5 µg/mL; MIC ([3]; GN7919, Concomitant (CPFX:SM = 1:1), P. vulgaris GN7919, read-out: MIC concomitant): 0.016 µg/mL; MIC ([3]; GN7919, Concomitant (DRPM:SM = 1:1), P. vulgaris GN7919, read-out: MIC concomitant): 0.063 µg/mL; MIC ([3]; GN7919, Concomitant (IPM:SM = 1:1), read-out: MIC): 0.5 µg/mL; MIC ([3]; GN7919, Concomitant (MEPM:SM = 1:1), read-out: MIC): 0.031 µg/mL; MIC ([3]; GN7919, Concomitant (MEPM:SM = 1:2), read-out: MIC): 0.063 µg/mL; MIC ([3]; GN7919, Concomitant (MEPM:SM = 1:4), read-out: MIC): 0.125 µg/mL; MIC ([3]; GN7919, Concomitant (PAPM:SM = 1:1), P. vulgaris GN7919, read-out: MIC concomitant): 0.5 µg/mL; MIC ([3]; GN7919, Concomitant (PIPC:SM = 1:1), P. vulgaris GN7919, read-out: MIC concomitant): 0.5 µg/mL; MIC ([3]; GN7919, Concomitant drug (MEPM:SM = 2:1), read-out: MIC): 0.016 µg/mL; MIC ([3]; GN7919, alone, read-out: MIC): 1 µg/mL; MIC ([3]; GN7919, drug alone, P. vulgaris GN7919, read-out: MIC alone): 1 µg/mL; MIC ([4]; OX19, Concomitant (IPM:SM = 1:1)): 0.063 µg/mL; MIC ([4]; OX19, Concomitant (MEPM:SM = 1:1)): ≤ 0.016 µg/mL; MIC ([4]; OX19, Concomitant (MEPM:SM = 1:2)): ≤ 0.031 µg/mL; MIC ([4]; OX19, Concomitant (MEPM:SM = 1:4)): ≤ 0.063 µg/mL; MIC ([4]; OX19, Concomitant drug (MEPM:SM = 2:1)): 0.016 µg/mL; MIC ([4]; OX19, alone): 0.063 µg/mL; MIC ([4]; OX19, read-out: MIC concomitant, Concomitant (AZT:SM = 1:1), P. vurgalis OX-19): 0.004 µg/mL; MIC ([4]; OX19, read-out: MIC concomitant, Concomitant (BIPM:SM = 1:1), P. vurgalis OX-19): 0.031 µg/mL; MIC ([4]; OX19, read-out: MIC concomitant, Concomitant (CAZ:SM = 1:1), P. vurgalis OX-19): 0.008 µg/mL
